Reference: paper PMC7932537, “Quantitative profiling of protease specificity” (PLoS Computational Biology, 2021)

Legend:
[1] = target: MMP-9 (Homo sapiens, UniProt P14780); assay: K(obs) of individual phage substrates (set of 1369); type: biochemical; settings: MMP9
[2] = tested on: MMP-2; assay: Substrate phage display with NGS: relative probability (RP) of P3-P1' tetramer clusters; type: biochemical, human; settings: MMP2;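 further: ratio of tetramer probability after protease selection to that in naive phage library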
[3] = target: T1, MMP-2 (Homo sapiens, UniProt P08253); assay: K(obs) of individual phage substrates (set of 1369); type: biochemical; settings: MMP2
T1 sequence (P08253 110-660): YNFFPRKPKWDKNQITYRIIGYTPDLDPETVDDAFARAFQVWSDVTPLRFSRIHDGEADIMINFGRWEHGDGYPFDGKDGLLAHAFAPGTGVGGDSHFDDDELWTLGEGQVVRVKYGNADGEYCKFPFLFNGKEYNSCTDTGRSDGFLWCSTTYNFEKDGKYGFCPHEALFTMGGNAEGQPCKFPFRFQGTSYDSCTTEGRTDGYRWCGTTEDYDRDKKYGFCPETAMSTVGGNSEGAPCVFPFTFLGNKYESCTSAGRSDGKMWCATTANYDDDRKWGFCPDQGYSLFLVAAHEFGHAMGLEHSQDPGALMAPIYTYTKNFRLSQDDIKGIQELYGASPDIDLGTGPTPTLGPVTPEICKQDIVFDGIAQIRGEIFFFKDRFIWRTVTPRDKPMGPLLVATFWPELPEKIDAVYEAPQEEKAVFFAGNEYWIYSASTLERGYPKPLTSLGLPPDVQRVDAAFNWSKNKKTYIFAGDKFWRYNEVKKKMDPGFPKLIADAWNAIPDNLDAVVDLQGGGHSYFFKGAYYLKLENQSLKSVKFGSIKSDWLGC

[4] = individual phage substrates, set of 1369 peptides, hyphen in sequence marks cleavage position
[5] = RP of the P3-P1' tetramer contained in the substrate (substrate phage display with NGS)
[6] = individual phage substrates, set of 1369 peptides, cleavage position marked by hyphen in sequence
[7] = individual phage substrate of the set of 1369 peptides, dash in the sequence marks the cleavage position
[8] = RP of the P3-P1' tetramer contained in the substrate
[9] = individual phage substrate of the set of 1369 peptides, cleavage position marked by '-'

MMP-9, sequence (P14780 94-707): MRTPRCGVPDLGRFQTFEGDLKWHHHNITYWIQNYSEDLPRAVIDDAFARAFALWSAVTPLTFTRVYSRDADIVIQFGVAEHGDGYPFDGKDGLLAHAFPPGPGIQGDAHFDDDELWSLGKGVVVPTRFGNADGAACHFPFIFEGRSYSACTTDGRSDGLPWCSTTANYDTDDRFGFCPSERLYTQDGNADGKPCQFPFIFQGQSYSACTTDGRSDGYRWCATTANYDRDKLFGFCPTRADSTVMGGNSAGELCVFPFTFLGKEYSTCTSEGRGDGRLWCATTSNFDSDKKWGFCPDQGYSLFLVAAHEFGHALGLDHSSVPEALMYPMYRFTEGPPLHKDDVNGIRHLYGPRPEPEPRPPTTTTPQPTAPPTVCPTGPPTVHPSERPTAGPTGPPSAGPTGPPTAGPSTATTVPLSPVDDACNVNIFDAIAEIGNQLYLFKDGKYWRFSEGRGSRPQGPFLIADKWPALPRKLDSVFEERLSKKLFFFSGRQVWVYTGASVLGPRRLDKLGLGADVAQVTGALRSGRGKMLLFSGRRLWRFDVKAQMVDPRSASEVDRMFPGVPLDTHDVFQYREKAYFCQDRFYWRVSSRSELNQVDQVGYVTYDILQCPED

Substance | Kobs [1, 4] [M⁻¹ s⁻¹] | relative probability (RP) [2, 5] | Kobs [3, 6] [M⁻¹ s⁻¹] | Kobs [1, 7] [M⁻¹ s⁻¹] | relative probability (RP) [2, 8] | Kobs [3, 9] [M⁻¹ s⁻¹]
GDMRH-LSTAS | 799.117 | 14.413 | 1561.44 |  |  | 
GDPYG-MRTAS |  |  |  | 4922.1 | 27.2726 | 3850.82
GDPYS-LRTAS |  |  |  | 12792.1 | 30.7259 | 4922.1
GEFAA-LQTAS | 323.705 | 18.8584 | 2615.58 |  |  | 
GEFRS-MRTAS | 0 | 5.389 | 1763.55 |  |  | 
GEPNY-LKTAS | 1239.69 | 17.2533 | 2687.73 |  |  | 
GEVFS-LTASG |  |  |  | 951.362 | 9.631 | 585.336
GEVRF-LRTAS |  |  |  | 2837.92 | 15.0438 | 9740.44
GEVRG-LRTAS | 7386.83 | 29.092 | 12792.1 |  |  | 
GFAWS-LHTAS |  |  |  | 2916.17 | 7.006 | 654.784
GFFLH-LTTAS | 0 | 0.8093 | 0 |  |  | 
GFPLM-LTASG |  |  |  | 12792.1 | 25.0435 | 9740.44
GFPLM-YATAS |  |  |  | 1763.55 | 17.2027 | 142.481
GFPQS-LMTAS | 12792.1 | 33.5105 | 10866.7 |  |  | 
GFSAN-LKTAS |  |  |  | 484.315 | 23.7816 | 5667.28
GFWSS-LRTAS |  |  |  | 0 | 16.6561 | 5461.43
GGPFL-LKTAS | 8321.48 | 9.085 | 1513.13 |  |  | 
GGPIP-LWTAS | 12792.1 | 33.1236 | 4763.33 |  |  | 
GGPRS-LFTAS |  |  |  | 12792.1 | 33.3704 | 12792.1
GGPSM-LTASG | 12792.1 | 33.0235 | 12792.1 |  |  | 
GGSGA-LRVRG |  |  |  | 0 | 13.4712 | 1154.21
GGSGH-LLGMS |  |  |  | 690.17 | 1.458 | 2097.28

Substance | Kobs [1, 4] [M⁻¹ s⁻¹] | relative probability (RP) [2, 5] | Kobs [3, 6] [M⁻¹ s⁻¹] | Kobs [1, 7] [M⁻¹ s⁻¹] | relative probability (RP) [2, 8] | Kobs [3, 9] [M⁻¹ s⁻¹]
GGSGM-LKLQP | 0 | 1.312 | 0 |  |  | 
GGSGN-LTMGS | 0 | 12.7361 | 0 |  |  | 
GGSGS-LVLRL | 1030.73 | 7.225 | 1196.62 |  |  | 
GGSGS-LVNLL | 0 | 7.225 | 0 |  |  | 
GGVSF-LLTAS | 27.918 | 5.918 | 1112.44 |  |  | 
GGYAG-LRTAS |  |  |  | 0 | 20.9112 | 4082.43
GGYAN-LTTAS | 0 | 27.7486 | 5269.78 |  |  | 
GHARS-LKTAS | 1239.69 | 17.186 | 2916.17 |  |  | 
GHAYH-LTASG |  |  |  | 4763.33 | 15.3364 | 3964.21
GHVRH-LLTAS |  |  |  | 386.839 | 25.4239 | 2545.25
GHYHH-LMTAS |  |  |  | 0 | 0 | 0
GIAHQ-LKTAS | 201.585 | 4.1 | 726.013 |  |  | 
GIFWH-LRTAS | 0 | 0 | 0 |  |  | 
GIPFF-MTTAS | 3079.62 | 3.509 | 0 |  |  | 
GIPRP-VMTAS |  |  |  | 6131.32 | 29.4989 | 6688.74
GIPYH-LATAS |  |  |  | 7015.91 | 27.2418 | 1816.46
GISFA-LTTAS | 27.918 | 0.5631 | 0 |  |  | 
GISQS-LITAS | 0 | 5.003 | 0 |  |  | 
GIVGM-LQTAS |  |  |  | 323.705 | 28.5913 | 4613.14
GIVKH-LQTAS | 836.403 | 14.8595 | 1711.63 |  |  | 
GIVRY-LQTAS |  |  |  | 3438.54 | 18.3724 | 4922.1
GKLAS-LRTAS | 84.609 | 31.1996 | 10866.7 |  |  | 
